Experimental findings from patent publication US20230374038A1, “MODULATORS OF CYSTIC FIBROSIS TRANSMEMBRANE CONDUCTANCE REGULATOR” (VERTEX PHARMACEUTICALS INCORPORATED, priority 2020, published 2023) are described below.

Like-named read-outs stand apart in the source and are kept apart here.

One data set concerns the target T1, F508del (Homo sapiens, UniProt P13569, DEL508-508).
T1 construct: expressed in transfected cells; host or cells: NIH3T3 mouse fibroblasts
The data set can be described thus: 3T3 Assay: membrane potential optical assay for F508del correctors in NIH 3T3 cells. The format is cell-based. As to conditions: for EC50: F508del corrector assay; for Emax: NIH3T3, F508del corrector assay, read-out: 3T3 Max Activity. From the text:
The assay utilizes fluorescent voltage sensing dyes to measure changes in membrane potential using a fluorescent plate reader (e.g., FLIPR III, Molecular Devices, Inc.) as a readout for increase in functional F508del in NIH 3T3 cells. The driving force for the response is the creation of a chloride ion gradient in conjunction with channel activation by a single liquid addition step after the cells have previously been treated with compounds and subsequently loaded with a voltage sensing dye.
To identify correctors of F508del, a single-addition HTS assay format was developed. This HTS assay utilizes fluorescent voltage sensing dyes to measure changes in membrane potential on the FLIPR III as a measurement for increase in gating (conductance) of F508del in F508del NIH 3T3 cells. The F508del NIH 3T3 cell cultures were incubated with the corrector compounds at a range of concentrations for 18-24 hours at 37° C., and subsequently loaded with a redistribution dye. The driving force for the response is a Cl^− ion gradient in conjunction with channel activation with forskolin in a single liquid addition step using a fluorescent plate reader such as FLIPR III.
Bath Solution #1: (in mM) NaCl 160, KCl 4.5, CaCl2) 2, MgCl2 1, HEPES 10, pH 7.4 with NaOH.
Chloride-free bath solution: Chloride salts in Bath Solution #1 (above) are substituted with gluconate salts.
NIH3T3 mouse fibroblasts stably expressing F508del are used for optical measurements of membrane potential. The cells are maintained at 37° C. in 5% CO2 and 90% humidity in Dulbecco's modified Eagle's medium supplemented with 2 mM glutamine, 10% fetal bovine serum, 1×NEAA, b-ME, 1× pen/strep, and 25 mM HEPES in 175 cm^2 culture flasks. For all optical assays, the cells were seeded at ˜20,000/well in 384-well matrigel-coated plates. For the correction assays, the cells are cultured at 37° C. with and without compounds for 16-24 hours.

Data set [1] deals with T2, CFTR (Homo sapiens, UniProt P13569). Put plainly: Membrane Potential Dye, Enteroid Assay A. The format is cell-based. The conditions noted are these: for EC50: read-out: Ent. A EC50.
T2 sequence (P13569 with tags, fused parts or gaps DEL508-508): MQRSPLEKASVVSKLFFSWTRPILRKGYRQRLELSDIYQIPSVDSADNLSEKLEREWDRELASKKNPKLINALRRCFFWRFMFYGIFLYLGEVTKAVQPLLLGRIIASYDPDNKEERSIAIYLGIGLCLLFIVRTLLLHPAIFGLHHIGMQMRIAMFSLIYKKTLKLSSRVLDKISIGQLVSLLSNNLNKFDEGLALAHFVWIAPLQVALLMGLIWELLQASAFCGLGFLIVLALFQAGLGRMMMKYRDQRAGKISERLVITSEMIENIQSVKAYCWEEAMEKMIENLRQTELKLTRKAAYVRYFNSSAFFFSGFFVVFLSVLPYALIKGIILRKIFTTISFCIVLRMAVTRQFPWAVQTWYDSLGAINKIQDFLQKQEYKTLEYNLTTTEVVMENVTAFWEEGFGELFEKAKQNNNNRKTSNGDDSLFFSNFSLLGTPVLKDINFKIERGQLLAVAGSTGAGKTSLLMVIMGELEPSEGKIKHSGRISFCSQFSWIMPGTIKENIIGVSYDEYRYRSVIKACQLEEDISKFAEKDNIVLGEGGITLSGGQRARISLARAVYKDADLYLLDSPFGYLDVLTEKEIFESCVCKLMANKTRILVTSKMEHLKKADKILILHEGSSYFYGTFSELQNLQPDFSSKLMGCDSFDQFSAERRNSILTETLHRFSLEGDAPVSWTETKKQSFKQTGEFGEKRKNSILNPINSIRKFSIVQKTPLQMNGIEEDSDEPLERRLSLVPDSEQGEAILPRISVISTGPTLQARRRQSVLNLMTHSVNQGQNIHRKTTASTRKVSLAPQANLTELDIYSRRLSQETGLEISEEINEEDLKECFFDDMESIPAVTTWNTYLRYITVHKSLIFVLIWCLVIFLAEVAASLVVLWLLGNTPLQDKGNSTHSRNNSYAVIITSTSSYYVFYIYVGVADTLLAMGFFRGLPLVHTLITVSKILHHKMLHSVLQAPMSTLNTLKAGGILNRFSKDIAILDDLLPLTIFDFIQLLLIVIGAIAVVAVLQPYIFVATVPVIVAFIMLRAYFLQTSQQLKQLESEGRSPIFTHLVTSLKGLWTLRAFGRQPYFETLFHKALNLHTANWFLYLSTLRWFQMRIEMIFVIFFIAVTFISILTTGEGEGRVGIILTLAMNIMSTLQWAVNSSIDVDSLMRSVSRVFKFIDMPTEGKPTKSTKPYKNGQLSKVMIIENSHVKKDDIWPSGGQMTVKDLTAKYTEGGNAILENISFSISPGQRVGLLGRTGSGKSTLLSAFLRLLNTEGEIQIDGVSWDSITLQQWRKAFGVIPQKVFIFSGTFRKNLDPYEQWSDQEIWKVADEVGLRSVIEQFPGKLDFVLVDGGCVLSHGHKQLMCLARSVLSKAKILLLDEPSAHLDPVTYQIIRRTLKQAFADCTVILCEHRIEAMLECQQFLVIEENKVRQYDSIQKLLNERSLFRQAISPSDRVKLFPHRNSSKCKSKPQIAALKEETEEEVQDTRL
The target in data set [2] is T3, CFTR (Homo sapiens, UniProt P13569, DEL508-508).
T3 construct: endogenous in cells; host or cells: primary human bronchial epithelial cells, F508del/MF genotype
T3 sequence (P13569 with tags, fused parts or gaps DEL508-508): as above
The data set can be described thus: HBE Assay: Ussing chamber assay of CFTR-mediated short-circuit currents in F508del/MF-HBE cells with 1 μM Ivacaftor. In kind it is cell-based. The conditions noted are these: with 1 μM Ivacaftor, 18-24 hours, 20% human serum. A digest of the protocol:
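F508del/MF-HBE cells at air-liquid interface >14 days were incubated 18-24 h at 37° C with corrector (concentration range or fixed 10 μM) plus 1 μM Ivacaftor in 20% human serum, compounds kept throughout. Ussing chamber, Vhold=0 mV, 37° C, apical amiloride 30 μM; ISC (μA/cm^2) from peak 20 μM forskolin response to steady state after CFTR inhibitor cocktail.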

The target of data set [3] is T2, CFTR. Put plainly: Membrane Potential Dye, Enteroid Assay B. As to conditions: for EC50: read-out: Ent. B EC50. The format is cell-based. A digest of the protocol: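 Membrane-potential fluorescence read over 15 min after chloride-free stimulation (forskolin 10 μM, IBMX 100 μM, Compound III 300 nM), with CaCCinh-A01 and Chicago Sky Blue present. Enteroids had 18-24 h compound exposure at 37 °C; activity given as % of the triple-combination corrector/potentiator reference response.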

A word on the EC50: it is the concentration that produces a half-maximal response.

T1 sequence (P13569 with tags, fused parts or gaps DEL508-508): as above

In the case of `CCc1c2nc(nc1-c1ccccc1C1CCC1)NS(=O)(=O)c1cccc(c1)NC(=O)c1cccc(c1)O2` [Compound 1, 5-(2-Cyclobutylphenyl)-4-ethyl-9,9-dioxo-2-oxa-9λ^6-thia-6,8,15,23-tetrazatetracyclo[15.3.1.13,7.110,14]tricosa-1(21),3,5,7(23),10,12,14(22),17,19-nonaen-16-one], at F508del, the EC50 was below 1 µM and the Emax was above 60%. On CFTR [1], the “Ent. A Max Activity” value is listed as “++ (++ is 30-60%)” and the EC50 was below 1 µM.

Regarding `CCc1c2nc(nc1-c1c(C)c(C)c(C)c(C)c1C)NS(=O)(=O)c1cccc(c1)NC(=O)c1cccc(c1)O2` [Compound 2, 4-Ethyl-9,9-dioxo-5-(2,3,4,5,6-pentamethylphenyl)-2-oxa-9λ^6-thia-6,8,15,23-tetrazatetracyclo[15.3.1.13,7.110,14]tricosa-1(21),3,5,7(23),10,12,14(22),17,19-nonaen-16-one], at F508del, the concentration for a half-maximal effect (EC50) is below 1 µM and the Emax is above 60%.

Take `Cc1ccc2cc1Oc1nc(nc(-c3c(C)cccc3C)c1Cl)NS(=O)(=O)c1cccc(c1)NC2=O` [Compound 8]: on F508del, the EC50 was below 1 µM and the Emax is above 60%.

As for `CCc1c2nc(nc1-c1ccccc1CN(C)C)NS(=O)(=O)c1cccc(c1)NC(=O)c1cccc(c1)O2` [Compound 10], at F508del, the Emax was below 30%.

As to `CCc1c2nc(nc1-c1ccccc1COCCOC)NS(=O)(=O)c1cccc(c1)NC(=O)c1cccc(c1)O2` [Compound 11], on F508del, the EC50 is below 1 µM and the Emax is above 60%.

For `CCc1c2nc(nc1-c1ccccc1COC)NS(=O)(=O)c1cccc(c1)NC(=O)c1cccc(c1)O2` [Compound 12], on F508del, the EC50 is below 1 µM and the Emax was above 60%.

`CCc1c2nc(nc1-c1cccc(C)c1C)NS(=O)(=O)c1cccc(c1)NC(=O)c1cccc(c1)O2` [Compound 17]: on F508del, the concentration for a half-maximal effect (EC50) is below 1 µM and the Emax was above 60%.

As to `CCc1c2nc(nc1-c1ccc([S+](C)[O-])cc1)NS(=O)(=O)c1cccc(c1)NC(=O)c1cccc(c1)O2` (centres unmarked) [Compound 18], the Emax at F508del is below 30%.

In the case of `CCc1c2nc(nc1-c1c(C)cc(C)cc1C)NS(=O)(=O)c1cccc(c1)NC(=O)c1cccc(c1)O2` [Compound 19], at F508del, the EC50 is below 1 µM and the Emax was above 60%.

Molecule `Cc1ccccc1-c1nc2nc(c1C(F)(F)F)OCC1CN(C)CCN1C(=O)c1cccc(c1)S(=O)(=O)N2` (centres unmarked) [Compound 31, 6-Methyl-13-(2-methylphenyl)-12-(trifluoromethyl)-10-oxa-17λ^6-thia-3,6,14,16,23-pentaazatetracyclo[16.3.1.111,15.03,8]tricosa-1(22),11,13,15(23),18,20-hexaene-2,17,17-trione] registered a ring closure, yield after HPLC (from Cc1ccccc1-c1nc(NS(=O)(=O)c2cccc(C(=O)N3CCN(C)CC3CO)c2)nc(Cl)c1C(F)(F)F, snar bond, 13-membered ring, NaH, NMP, 70.0 °C, 4.0 h, 2 steps) of 6%. For the same molecule, at CFTR [1], the “Ent. A Max Activity” value is given as “++ (++ is 30-60%)” and the EC50 lay in the range of 3 to 30 µM.

`Cc1ccccc1-c1nc2nc(c1C(F)(F)F)OCC1CN(CCN1CCC1(C(F)(F)F)CC1)C(=O)c1cccc(c1)S(=O)(=O)N2` (centres unmarked) [Compound 32, 12-(2-Methylphenyl)-13-(trifluoromethyl)-18-{2-[1-(trifluoromethyl)cyclopropyl]ethyl}-15-oxa-8λ^6-thia-1,9,11,18,22-pentaazatetracyclo[15.3.1.13,7.110,14]tricosa-3(23),4,6,10(22),11,13-hexaene-2,8,8-trione] showed a ring closure, yield after HPLC (from Cc1ccccc1-c1nc(NS(=O)(=O)c2cccc(C(=O)O)c2)nc(OCC2CNCCN2CCC2(C(F)(F)F)CC2)c1C(F)(F)F, amide bond, 14-membered ring, HATU/DIEA, DMF, 25.0 °C, 1.0 h, 3 steps) of 16%. On CFTR [1], the “Ent. A Max Activity” value is “++ (++ is 30-60%)” and the EC50 lay in the range of 1 to 3 µM.

In turn, `Cc1ccccc1-c1nc2nc(c1C(C)(C)C)OCC1CN(CCN1CCC1(C(F)(F)F)CC1)C(=O)c1cccc(c1)S(=O)(=O)N2` (centres unmarked) [Compound 33, 13-tert-Butyl-12-(2-methylphenyl)-18-{2-[1-(trifluoromethyl)cyclopropyl]ethyl}-15-oxa-8λ^6-thia-1,9,11,18,22-pentaazatetracyclo[15.3.1.13,7.110,14]tricosa-3(23),4,6,10(22),11,13-hexaene-2,8,8-trione] had a ring closure, yield after HPLC (from Cc1ccccc1-c1nc(NS(=O)(=O)c2cccc(C(=O)O)c2)nc(OCC2CNCCN2CCC2(C(F)(F)F)CC2)c1C(C)(C)C, amide bond, 14-membered ring, HATU/DIEA, DMF, 25.0 °C, 1.0 h, 3 steps) of 8%. Also, at CFTR [1], the “Ent. A Max Activity” value is “+++ (+++ is >60%)” and the EC50 fell in the range of 1 to 3 µM.

Molecule `Cc1cccc(C)c1-c1nc2nc(c1C)OC[C@@H](CC(C)(C)C)N(Cc1ccc(N3CCOCC3)cn1)C(=O)c1cccc(c1)S(=O)(=O)N2` [Compound 49, (11R)-6-(2,6-Dimethylphenyl)-11-(2,2-dimethylpropyl)-7-methyl-12-{[5-(morpholin-4-yl)pyridin-2-yl]methyl}-9-oxa-2λ^6-thia-3,5,12,19-tetraazatricyclo[12.3.1.14,8]nonadeca-1(17),4(19),5,7,14(18),15-hexaene-2,2,13-trione] showed a ring closure, yield after HPLC (from Cc1cccc(C)c1-c1nc(NS(=O)(=O)c2cccc(C(=O)O)c2)nc(OC[C@@H](CC(C)(C)C)NCc2ccc(N3CCOCC3)cn2)c1C, amide bond, 13-membered ring, CDMT/NMM, DMF, 21.0 mM, 15.0 h, 2 steps) of 5%. In addition, at CFTR [2], the EC50 is below 1 µM and the “HBE Max Activity” value was “+++ (+++ is >600%)”.

Turning to `Cc1cccc(C)c1-c1nc2nc(c1OC(C)C)OC[C@@H](CC(C)C)NC(=O)c1cccc(c1)S(=O)(=O)N2` [Compound 165, (11R)-6-(2,6-Dimethylphenyl)-11-isobutyl-7-isopropoxy-2,2-dioxo-9-oxa-2λ^6-thia-3,5,12,19-tetrazatricyclo[12.3.1.14,8]nonadeca-1(18),4(19),5,7,14,16-hexaen-13-one], the ring closure, yield after HPLC (from Cc1cccc(C)c1-c1nc(NS(=O)(=O)c2cccc(C(=O)O)c2)nc(OC[C@H](N)CC(C)C)c1OC(C)C, amide bond, 13-membered ring, HATU/Et3N, DMF, 12.0 mM, 0.5 h, 2 steps) stood at 8%. Further, on CFTR [1], the “Ent. A Max Activity” value is listed as “+++ (+++ is >60%)” and the EC50 was below 1 µM. Also, at CFTR [3], the “Ent. B Max Activity” value is “+++ (+++ is >60%)” and the EC50 was below 1 µM.

Molecule `Cc1cccc(C)c1-c1nc2nc(c1C)O[C@H](c1ccc(C(C)(C)C)cc1)[C@@H](C)NC(=O)c1cccc(c1)S(=O)(=O)N2` [Compound 172, (10R,11R)-10-(4-tert-Butylphenyl)-6-(2,6-dimethylphenyl)-7,11-dimethyl-2,2-dioxo-9-oxa-2λ^6-thia-3,5,12,19-tetrazatricyclo[12.3.1.14,8]nonadeca-1(18),4(19),5,7,14,16-hexaen-13-one] yielded a ring closure, yield after HPLC (amide bond, 13-membered ring, NaOtBu then HATU, THF/DMF, 77.0 mM, 2 steps) of 8%. At CFTR [3], the “Ent. B Max Activity” value is recorded as “+++ (+++ is >60%)” and the EC50 is below 1 µM.

For `Cc1c2nc(nc1-c1ccccc1C(C)C)NS(=O)(=O)c1cccc(c1)C(=O)N(Cc1ncc(N3CCOCC3)cn1)[C@H](CC(C)(C)C)CO2` [Compound 173, (11R)-11-(2,2-Dimethylpropyl)-7-methyl-12-{[5-(morpholin-4-yl)pyrimidin-2-yl]methyl}-6-[2-(propan-2-yl)phenyl]-9-oxa-2λ^6-thia-3,5,12,19-tetraazatricyclo[12.3.1.14,8]nonadeca-1(17),4(19),5,7,14(18),15-hexaene-2,2,13-trione], the ring closure, yield after HPLC (from Cc1c(OC[C@@H](CC(C)(C)C)NCc2ncc(N3CCOCC3)cn2)nc(NS(=O)(=O)c2cccc(C(=O)O)c2)nc1-c1ccccc1C(C)C, amide bond, 13-membered ring, CDMT/NMM, DMF, 57.0 mM, 19.0 h, 2 steps) was found to be 18%. Further, on CFTR [2], the EC50 is below 1 µM and the “HBE Max Activity” value is “+++ (+++ is >600%)”.
